Experimental data as given in PMC6614837 (Nucleic Acids Research, 2019).

How the values were obtained:
[1] = molecular target: T1, RNase P holoenzyme from Thermotoga maritima (Thermotoga maritima, UniProt Q9X1H4); assay: Real-time fluorescence-based (FRET) RNase P activity assay with minihelix (Mh) substrate; format: biochemical; settings: fluorescent Mh substrate 270 nM, holoenzyme 33 nM, 10% DMSO, 37°C, 400 mM AmOAc, 100 mM MgCl2
T1 construct: made in house
T1 sequence (Q9X1H4 1-117): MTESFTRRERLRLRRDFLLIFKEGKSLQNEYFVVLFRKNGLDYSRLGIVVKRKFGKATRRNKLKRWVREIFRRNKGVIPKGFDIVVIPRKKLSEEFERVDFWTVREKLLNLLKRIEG
Protocol: (§1) The reconstitution of the RNase P holoenzyme was performed as described in ([40],[19]). This protocol produces a homogeneous and functional ribozyme that can be crystallized by mixing P RNA and P protein in a 1:1.1 molar ratio in 1× TH buffer (33 mM Tris–HCl, 66 mM HEPES, pH 7.4) and 400 mM ammonium acetate (AmOAc). The mixture was heated to 95°C for 2 min in a water bath, then chilled on ice for 2 min, after which MgCl2 was added to a final concentration of 100 mM. […] This higher concentration was used in all experiments described herein. The holoenzyme was further incubated at 50°C for 10 min and 37°C for 40 min. The final concentration of holoenzyme was 333 nM (35.6 μg/ml of P RNA and 4.7 μg/ml of P protein).
The minihelix (Mh) substrate (Figure 1A) was adopted from a previously characterized RNase P substrate, pMini3bpUG ([32],[33]) and coupled to either Black Hole Quencher 1 (BHQ1) or Black Hole Quencher 2 (BHQ2) at the 5′-end and Alexa Fluor 488 at the 3′-end. This probe was purchased either from Sigma-Aldrich or Integrated DNA Technologies (IDT). A requested scale of […] yielded between 6.3 and 20 nmol (57.5 to 181 μg, enough for 1300–4000 reactions depending on the experimental substrate concentration). Before use, the minihelix was diluted from a 100 μM stock (dissolved in water) to 3.6 μM in activity buffer H (33 mM Tris–HCl, 66 mM HEPES, pH 7.4, 400 mM AmOAc and 100 mM MgCl2).
(§2) Reactions were performed in a total volume of 20 μl. Pipetting was done by hand using multichannel pipettes. First, an 18 μl reaction mixture containing 16.5 μl of activity buffer (H for Mh or L supplemented with 10% PEG 200 for bipartite pre-tRNA) and 270 nM (Mh) or 135 nM (bipartite pre-tRNA) (1.5 or 0.7 μl of the 3.6 μM stock) of the fluorescent substrate probe was pre-incubated on ice for at least 5 m in a black polystyrene 384-well microtiter microplate with a flat transparent bottom (Corning ref 3540). The holoenzyme was then added at a final concentration of 33 nM (2 μl of a 333 nM stock) in 1× TH buffer and mixed. Kinetic activity was monitored in a Synergy MX Multimode Detector (BioTek) at 37°C with rapid agitation. At least 20 readings were taken per well every 15 s. The probe was excited at 485 nm, and its emission was monitored at 535 nm with an integration time of 1 s. From the plots of relative fluorescent units (RFU) versus time, linear regression was used to determine the slopes in the linear portion of the curves, using at least 12 data points to obtain initial velocities. Non-linear fitting to obtain the Michaelis–Menten parameters was performed using GraphPad Prism® 6.01 software.
Supplementary Figure 3. FRET assays of RNase P with the fluorescent substrate are reproducible. (A) Representative plots of kinetic assays performed in a single run. The standard assay (SA), (+), was performed at 37° C in a total volume of 20 µL and contained RNase P holoenzyme at 33 nM, substrate minihelix (Mh) at 270 nM, 10% DMSO and activity buffer (AB).
The negative control assay (-) contained 100 mM CaCl2 in place of MgCl2. Ten to twelve wells were monitored simultaneously in a typical assay. (B) Zoomed view of the linear region of the kinetic assays shown in panel A. Fluorescence readings were performed every 15-20 seconds.
Linear regression calculations were done using the GraphPad Prism 7 software. (C) The coefficient Z’-factor (1) was used as an indicator of reproducibility and was calculated based on the relative fluorescence units (RFU) in the plateau phase (taken at 20 minutes). The Z’-factor has a […]
presented in this work were either measured in triplicate or confirmed in subsequent assays. (D) […]
assay is robust. The IC50 values reported in Figures 1C and 2 were calculated according to this kinetic parameter. There is a negative drift in fluorescence in the case of the negative control.
However, it should be noted that the mean value of it (-279) is much smaller than the signal of the […]
positive control (3397). […]

[2] = molecular target: T1, RNase P holoenzyme from Thermotoga maritima; assay: Real-time fluorescence-based RNase P activity assay with bipartite pre-tRNA substrate; format: biochemical; settings: fluorescent bipartite pre-tRNA substrate, holoenzyme 33 nM, 10% PEG 200 in place of DMSO
Protocol: as §1
The bipartite pre-tRNA substrate derived from pre-tRNA^Phe from T. maritima (Supplementary Figure S13) was designed for the ease of chemical synthesis and conceived from the fact that the anticodon loop is not required for RNase P recognition (Reiter et al.). As for the Mh substrate, fluorescent bipartite pre-tRNA was coupled to Black Hole Quencher 1 (BHQ1) at the 5′-end of the 5′ oligo, and to Alexa Fluor 488 at the 3′-end of the 3′ oligo (see Supplementary Table S1). The probes were purchased from Integrated DNA Technologies (IDT). A requested scale of 250 nmol yielded 27.4 nmol (0.36 mg) for the 5′ oligo and 3.8 nmol (50 μg) for the 3′ fluorescent oligo. Before use, the probes were diluted from a 100 μM stock (dissolved in water) and assembled by mixing and heating to 3.6 μM in activity buffer L (Tris–HCl pH 7.4 33 mM, HEPES 66 mM, 100 mM AmOAc and 10 mM MgCl2).
as §2, with “software. […]” for “software.”

[3] = test system: 3'-biotinylated minihelix (Mh; pMini3bpUG) (RNA, hairpin) GAUCUGAAUGCGGAAACGCGCCAC; assay: biolayer interferometry; settings: Mg2+ 10 mM, NH4+ 100 mM (ammonium acetate); 20 mM HEPES pH 7.4, DMSO, 30°C; compound 15.6-500 µM

`CN(C)c1ccc(C(=C2C=CC(=[N+](C)C)C=C2)c2ccc(N(C)C)cc2)cc1` [Gentian violet, tris(4-(dimethylamino)phenyl)methylium chloride, reference compound] showed an IC50 [1] of 7.3 ± 1.6 µM, an IC50 [2] of 16.2 ± 2.1 µM and a KD [3] of 8 µM.
